We go through 30 compounds from US8729082B2, “Substituted imidazoquinoxalines” (Bayer Intellectual Property GmbH, priority 2009, dated 2014).

pIC50: −log10 of the molar value.

The target of the assay is T1, human kinase Mps-1 (Homo sapiens, UniProt P33981).
T1 construct: N-terminally GST-tagged human full length recombinant Mps-1 kinase; purchased Invitrogen, Karslruhe, Germany PV4071
T1 sequence (P33981 1-857): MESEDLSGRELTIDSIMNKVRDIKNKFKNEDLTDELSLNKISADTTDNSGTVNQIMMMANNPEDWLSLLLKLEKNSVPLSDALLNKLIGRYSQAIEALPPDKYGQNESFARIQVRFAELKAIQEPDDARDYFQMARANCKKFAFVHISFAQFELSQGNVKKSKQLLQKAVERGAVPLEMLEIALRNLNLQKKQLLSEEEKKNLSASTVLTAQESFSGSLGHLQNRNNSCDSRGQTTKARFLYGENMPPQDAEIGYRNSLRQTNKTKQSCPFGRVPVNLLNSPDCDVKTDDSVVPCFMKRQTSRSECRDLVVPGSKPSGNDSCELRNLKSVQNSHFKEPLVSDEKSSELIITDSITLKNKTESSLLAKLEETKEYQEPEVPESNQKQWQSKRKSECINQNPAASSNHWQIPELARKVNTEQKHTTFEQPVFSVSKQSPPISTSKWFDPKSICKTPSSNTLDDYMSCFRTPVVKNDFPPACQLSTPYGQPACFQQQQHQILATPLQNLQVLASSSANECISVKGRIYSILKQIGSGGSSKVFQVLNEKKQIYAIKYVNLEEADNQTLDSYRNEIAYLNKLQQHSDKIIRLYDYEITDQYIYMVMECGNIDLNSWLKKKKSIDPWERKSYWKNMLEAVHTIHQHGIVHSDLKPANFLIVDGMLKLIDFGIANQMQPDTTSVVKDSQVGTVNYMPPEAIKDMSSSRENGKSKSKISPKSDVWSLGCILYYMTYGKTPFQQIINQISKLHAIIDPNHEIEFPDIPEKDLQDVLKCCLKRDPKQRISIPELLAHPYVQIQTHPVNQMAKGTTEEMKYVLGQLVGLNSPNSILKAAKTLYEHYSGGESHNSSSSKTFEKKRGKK
Nature of the assay: Mps-1 kinase assay (HTRF). The following applies: lowATP; mean; read-out: Mps1 lowATP mean IC50. The format is biochemical. In short, it runs like this:
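HTRF readout: EDTA-stopped reactions incubated 1 h with europium anti-phospho(Ser/Thr) antibody and streptavidin-XLent, emission ratio 665/620 nm after 350 nm excitation. Kinase step: compound pre-bound 15 min to ~1 nM GST-Mps-1, then 60 min at 22 °C with ATP and biotin-peptide substrate; inhibition scaled between no-inhibitor (0%) and no-enzyme (100%) controls.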
(Time-resolved FRET reads energy transfer from a long-lived donor to a nearby acceptor.)
In general, pIC50 refers to the IC50 on a negative log10 scale, so that one unit is a factor of ten. Consider `Cn1ccc(CNc2nc3cc(C#N)ccc3n3c(-c4ccc(C(=O)NC5CC5)cc4)cnc23)n1` [Example 2-219, 4-(7-cyano-4-{[(1-methyl-1H-pyrazol-3-yl)methyl]amino}imidazo[1,2-a]quinoxalin-1-yl)-N-cyclopropylbenzamide], for which the negative-log IC50 (pIC50) was 7.22. As to `CC(C)CNc1nc2ccccc2n2c(-c3cccc(O)c3)cnc12` [Example 1-36, 3-{4-[(2-methylpropyl)amino]imidazo[1,2-a]quinoxalin-1-yl}phenol], the negative-log IC50 (pIC50) was 4.73. As to `CCCNc1nc2cc(C)c(C)cc2n2c(-c3ccc(C(=O)NC4CC4)c(Cl)c3)cnc12` [Example 2-178, 2-chloro-N-cyclopropyl-4-[7,8-dimethyl-4-(propylamino)imidazo[1,2-a]quinoxalin-1-yl]benzamide], the pIC50 was 7.61.

With `COCCNc1nc2ccccc2n2c(-c3ccc(C(=O)NC4CC4)cc3)cnc12` [Example 2-12, N-cyclopropyl-4-{4-[(2-methoxyethyl)amino]imidazo[1,2-a]quinoxalin-1-yl}benzamide], the pIC50 is 6.75. Next, `CCNc1nc2cc(C#N)ccc2n2c(-c3ccc(C(=O)NC4CC4)cc3)cnc12` [Example 2-210, 4-[7-cyano-4-(ethylamino)imidazo[1,2-a]quinoxalin-1-yl]-N-cyclopropylbenzamide]: 7.45.

Turning to `CC(C)CNc1nc2ccccc2n2c(-c3ccccc3O)cnc12` [Example 1-35, 2-{4-[(2-methylpropyl)amino]imidazo[1,2-a]quinoxalin-1-yl}phenol], the pIC50 was 5.34. In the case of `CC(C)CNc1nc2ccccc2n2c(-c3ccc(CO)cc3)cnc12` [Example 1-27, (4-{4-[(2-methylpropyl)amino]imidazo[1,2-a]quinoxalin-1-yl}phenyl)methanol], the pIC50 was 5.77. Take `CC(C)CNc1nc2ccccc2n2c(-c3cc[nH]n3)cnc12` [Example 1-43, N-(2-methylpropyl)-1-(1H-pyrazol-3-yl)imidazo[1,2-a]quinoxalin-4-amine]: the pIC50 is 4.98.

On to `O=C(NC1CC1)c1ccc(-c2cnc3c(NCc4cccnc4)nc4ccc(F)cc4n23)cc1Cl` [Example 2-81, 2-chloro-N-cyclopropyl-4-{8-fluoro-4-[(pyridin-3-ylmethyl)amino]imidazo[1,2-a]quinoxalin-1-yl}benzamide], for which the negative logarithm of the IC50 (pIC50) is 5.85. With `CNC(=O)Nc1ccc(-c2cnc3c(NCc4ccco4)nc4cc(C#N)ccc4n23)cc1` [Example 2-231, 1-(4-{7-cyano-4-[(furan-2-ylmethyl)amino]imidazo[1,2-a]quinoxalin-1-yl}phenyl)-3-methylurea], the pIC50 was 5.28. Take `CC(C)CNc1nc2ccccc2n2c(-c3ccc(C(=O)Nc4ccc(S(N)(=O)=O)cc4)cc3)cnc12` [Example 3-9, 4-{4-[(2-methylpropyl)amino]imidazo[1,2-a]quinoxalin-1-yl}-N-(4-sulfamoylphenyl)benzamide]: the pIC50 was 5.18.

For the compound `CNC(=O)Nc1ccc(-c2cnc3c(NCCCN4CCCC4=O)nc4cc(C#N)ccc4n23)cc1` [Example 2-225, 1-[4-(7-cyano-4-{[3-(2-oxopyrrolidin-1-yl)propyl]amino}imidazo[1,2-a]quinoxalin-1-yl)phenyl]-3-methylurea], the pIC50 is 5.09.

As to `CNC(=O)CNC(=O)c1ccc(-c2cnc3c(NCC(C)C)nc4ccccc4n23)cc1` [Example 3-19, N-[2-(methylamino)-2-oxoethyl]-4-{4-[(2-methylpropyl)amino]imidazo[1,2-a]quinoxalin-1-yl}benzamide], the pIC50 is 4.94. For the compound `CNC(=O)Nc1ccc(-c2cnc3c(NCCCCO)nc4cc(C)c(C)cc4n23)cc1` [Example 2-165, 1-(4-{4-[(4-hydroxybutyl)amino]-7,8-dimethylimidazo[1,2-a]quinoxalin-1-yl}phenyl)-3-methylurea], the negative-log IC50 (pIC50) was 6.58. As for `CNC(=O)Nc1ccc(-c2cnc3c(NCc4cnn(C)c4)nc4ccc(F)cc4n23)cc1` [Example 2-72, 1-[4-(8-fluoro-4-{[(1-methyl-1H-pyrazol-4-yl)methyl]amino}imidazo[1,2-a]quinoxalin-1-yl)phenyl]-3-methylurea], the pIC50 was 5.60. On to `O=C(NC1CC1)c1ccc(-c2cnc3c(NCCCCO)nc4cc(F)c(F)cc4n23)cc1Cl` [Example 2-129, 2-chloro-N-cyclopropyl-4-{7,8-difluoro-4-[(4-hydroxybutyl)amino]imidazo[1,2-a]quinoxalin-1-yl}benzamide], for which the negative logarithm of the IC50 (pIC50) was 5.64.

Regarding `CNC(=O)Nc1ccc(-c2cnc3c(NCc4cccc(F)c4)nc4cc(C)c(C)cc4n23)cc1` [Example 2-161, 1-(4-{4-[(3-fluorobenzyl)amino]-7,8-dimethylimidazo[1,2-a]quinoxalin-1-yl}phenyl)-3-methylurea], the negative-log IC50 (pIC50) was 5.88. Next, `CC(=O)c1ccc(-c2cnc3c(NCC(C)C)nc4ccccc4n23)cc1` [Example 1-24, 1-(4-{4-[(2-methylpropyl)amino]imidazo[1,2-a]quinoxalin-1-yl}phenyl)ethanone]: 5.59. Next, `N#Cc1ccc2c(c1)nc(NCc1ccco1)c1ncc(-c3ccc(C(=O)NC4CC4)cc3)n12` [Example 2-215, 4-{7-cyano-4-[(furan-2-ylmethyl)amino]imidazo[1,2-a]quinoxalin-1-yl}-N-cyclopropylbenzamide]: 7.61; `CCCCNc1nc2cc(C#N)ccc2n2c(-c3ccc(C(=O)NC4CC4)cc3)cnc12` [Example 2-212, 4-[4-(butylamino)-7-cyanoimidazo[1,2-a]quinoxalin-1-yl]-N-cyclopropylbenzamide]: 8.00. Regarding `O=C(NC1CC1)c1ccc(-c2cnc3c(NCCN4CCOCC4)nc4ccccc4n23)cc1` [Example 2-24, N-cyclopropyl-4-(4-{[2-(morpholin-4-yl)ethyl]amino}imidazo[1,2-a]quinoxalin-1-yl)benzamide], the pIC50 was 6.90.

On to `CCCNc1nc2cc(C)c(C)cc2n2c(-c3ccc(C(=O)NC4CC4)cc3)cnc12` [Example 2-144, N-cyclopropyl-4-[7,8-dimethyl-4-(propylamino)imidazo[1,2-a]quinoxalin-1-yl]benzamide], for which the pIC50 is 8.38. Take `O=C(NC1CC1)c1ccc(-c2cnc3c(NCC4CC4)nc4cc(F)c(F)cc4n23)cc1` [Example 2-104, N-cyclopropyl-4-{4-[(cyclopropylmethyl)amino]-7,8-difluoroimidazo[1,2-a]quinoxalin-1-yl}benzamide]: the pIC50 is 7.47.

In the case of `COc1ccc(CCNc2nc3ccccc3n3c(-c4ccc(C(=O)NC5CC5)cc4)cnc23)cc1` [Example 2-17, N-cyclopropyl-4-(4-{[2-(4-methoxyphenyl)ethyl]amino}imidazo[1,2-a]quinoxalin-1-yl)benzamide], the pIC50 was 6.25.

Regarding `CC(=O)NCc1cccc(-c2cnc3c(NCC(C)C)nc4ccccc4n23)c1` [Example 1-44, N-(3-{4-[(2-methylpropyl)amino]imidazo[1,2-a]quinoxalin-1-yl}benzyl)acetamide], the pIC50 is 4.94. In the case of `O=C(NC1CC1)c1ccc(-c2cnc3c(NCC(O)CO)nc4ccc(F)cc4n23)cc1` (stereo not drawn) [Example 2-59, N-cyclopropyl-4-{4-[(2,3-dihydroxypropyl)amino]-8-fluoroimidazo[1,2-a]quinoxalin-1-yl}benzamide], the negative logarithm of the IC50 (pIC50) was 6.32. Next, `O=C(NC1CC1)c1ccc(-c2cnc3c(NCc4ccccc4)nc4ccccc4n23)cc1` [Example 2-16, 4-[4-(benzylamino)imidazo[1,2-a]quinoxalin-1-yl]-N-cyclopropylbenzamide]: 7.17.

In the case of `CNC(=O)Nc1ccc(-c2cnc3c(NCCCn4ccnc4)nc4ccc(F)cc4n23)cc1` [Example 2-67, 1-[4-(8-fluoro-4-{[3-(1H-imidazol-1-yl)propyl]amino}imidazo[1,2-a]quinoxalin-1-yl)phenyl]-3-methylurea], the pIC50 was 5.50.

As for `Cc1cc2nc(NCCCN3CCCC3=O)c3ncc(-c4ccc(C(=O)NC5CC5)c(Cl)c4)n3c2cc1C` [Example 2-182, 2-chloro-N-cyclopropyl-4-(7,8-dimethyl-4-{[3-(2-oxopyrrolidin-1-yl)propyl]amino}imidazo[1,2-a]quinoxalin-1-yl)benzamide], the pIC50 was 6.35. `Cn1ccc(CNc2nc3cc(F)c(F)cc3n3c(-c4ccc(C(=O)NC5CC5)c(Cl)c4)cnc23)n1` [Example 2-141, 2-chloro-N-cyclopropyl-4-(7,8-difluoro-4-{[(1-methyl-1H-pyrazol-3-yl)methyl]amino}imidazo[1,2-a]quinoxalin-1-yl)benzamide]: the pIC50 was 5.35.
